Measurements as given in patent US20160011174A1, “Assay for Determining the Cell Number in Cultured Cells” (KEELE UNIVERSITY, priority 2013, published 2016).

Legend:
hepG2 cells [1] = assay: Removal of added AA from DMEM medium by hepG2 cells (SIFT-MS headspace); type: in vitro ADME, human; conditions: 20 million hepG2 cells; for headspace AA concentration after incubation with cells: 16 hours
Experimental: (§1) The inhibitor solutions were then added to volumes of medium so that the final DMSO concentration was always 0.1% v/v (or ˜14 500 μM). In some experiments, inhibitors were added to hMSCs during routine culture, some 24 hours prior to proceeding to the next phase of the analysis, but this pre-treatment was not employed in the hepG2 experiments. […] The importance of precursor ions in the analysis is explained further in the SIFT-MS section below. The method used for the preparation of cell cultures for SIFTMS headspace analysis was adapted from the previous studies published in 2003 (ref. 21) and 2009 (ref. 22). On the evening prior to the analysis, the cells were removed from the tissue culture flasks using trypsin, counted using a haemocytometer, and suspended in fresh DMEM media containing the ALDH inhibitor where appropriate, inside 150 mL glass bottles. […] The headspace of each bottle was purged with dry cylinder air before the bottles were finally sealed with metal caps, which incorporate rubber septa, and placed inside an incubator to be held at 37° C. for around 16 hours/overnight.
The methodology of SIFT-MS analyses for the sampling and quantification of compounds in the headspace of liquid samples has been described in detail previously (Refs 21,22,27-32). […] The product ions and the precursor ions are then analysed by a quadrupole mass spectrometer/detection system. Throughout the present study the instrument was operated in the multiple ion monitoring (MIM) mode, during which the desired precursor ion and its hydrates (Ref 33) and the characteristic product ions, are continuously monitored. This system, in combination with the previously compiled kinetics data for the reactions between the precursor ions and neutral molecules (Refs 34,35 rapidly allows the simultaneous absolute quantification of the concentrations of several selected volatile compounds of interest. The simultaneous detection and analysis of AA and DMS in a mixture presents a peculiar problem to SIFT-MS because of the overlap of characteristic product ions on which the analysis depends. However, the ion chemistry involved has been studied in detail and the kinetics database entries required for the accurate analyses of these two compounds by SIFT-MS have been constructed by following the guidelines given by previous studies (refs 34,35). In brief, AA was analysed using H3O^+ precursor ions and the unique protonated AA characteristic product ion at m/z 45, as described in detail in a recent paper (Ref 36). […]
Removal of AA from DMEM medium by cellular action. […] Identical medium samples without cells were also analysed (as described above) to obtain the starting (background) headspace AA concentration. […]

ALDH [2] = assay: SIFT-MS headspace acetaldehyde (AA) in hepG2 cultures with ALDH inhibitors; type: cell-based, human
Experimental: (§2) Human mesenchymal stem cells, hMSCs, are a primary cell type, and were isolated from a bone marrow aspirate sample (person; Lonza, US) using the plastic-adherence methodology and the hepG2 cells are of a human hepatocellular carcinoma cell line (Eton Bioscience, US), a cell line commonly used for the study of liver function. In both cases, the cells were cultured to confluence in Dulbecco's modified Eagle's medium (DMEM; Lonza, UK), supplemented with 10% v/v foetal bovine serum (FBS; Lonza, UK), 50 U mL^−1 penicillin-streptomycin (Lonza, UK) and 2 mM L-glutamine (Lonza, UK). The hMSCs additionally contained 1% v/v non-essential amino acids. The hMSCs were not cultured beyond passage number 4, whereas the well-differentiated hepG2 cells were analysed before passage number 20.
The inhibitor solutions were then added to volumes of medium so that the final DMSO concentration was always 0.1% v/v (or ˜14 500 μM). In some experiments, inhibitors were added to hMSCs during routine culture, some 24 hours prior to proceeding to the next phase of the analysis, but this pre-treatment was not employed in the hepG2 experiments. […] On the evening prior to the analysis, the cells were removed from the tissue culture flasks using trypsin, counted using a haemocytometer, and suspended in fresh DMEM media containing the ALDH inhibitor where appropriate, inside 150 mL glass bottles. […]
(§3) The methodology of SIFT-MS analyses for the sampling and quantification of compounds in the headspace of liquid samples has been described in detail previously (Refs 21,22,27-32). […] The product ions and the precursor ions are then analysed by a quadrupole mass spectrometer/detection system. Throughout the present study the instrument was operated in the multiple ion monitoring (MIM) mode, during which the desired precursor ion and its hydrates (Ref 33) and the characteristic product ions, are continuously monitored. […] In brief, AA was analysed using H3O^+ precursor ions and the unique protonated AA characteristic product ion at m/z 45, as described in detail in a recent paper (Ref 36). […]

hepG2 cells [3] = assay: SIFT-MS headspace DMS in hepG2 cultures (DMSO reduction to DMS); type: cell-based, human
Experimental: as §2, §1, §3

ALDH [4] = assay: SIFT-MS headspace AA in hMSC cultures with ALDH inhibitors; type: cell-based, human; conditions: approximately 5(10^6) hMSCs, 24 hours pre-treatment plus 16 hours sealed incubation
Experimental: as §2
(§4) The inhibitor solutions were then added to volumes of medium so that the final DMSO concentration was always 0.1% v/v (or ˜14 500 μM). […] On the evening prior to the analysis, the cells were removed from the tissue culture flasks using trypsin, counted using a haemocytometer, and suspended in fresh DMEM media containing the ALDH inhibitor where appropriate, inside 150 mL glass bottles. […]
(§5) The methodology of SIFT-MS analyses for the sampling and quantification of compounds in the headspace of liquid samples has been described in detail previously (Refs 21,22,27-32). […]

hMSCs = assay: SIFT-MS headspace DMS in hMSC cultures (DMSO reduction to DMS); type: cell-based, human; conditions: approximately 5(10^6) hMSCs, 24 hours pre-treatment plus 16 hours sealed incubation, 0.1% v/v DMSO
Experimental: as §2, §4, §5

hepG2 cells [5] = assay: Live-dead staining viability after sealed bottle incubation; type: cell-based, human; conditions: 1.5(10^7) hepG2 cells sealed 16 hours; 200 μM DEAB or 20 μM DSF
Experimental: In order to assess any changes in the viability of hepG2 cells due to the method of analysis, which requires the cells to be sealed inside a glass bottle for around 16 hours, cells were cultured to near-confluence using the untreated medium described earlier, and observed using a live-dead staining (Sigma, UK), and confocal microscopy. […] The cell-suspensions were then sealed inside 150 mL glass bottles and incubated at 37° C. for 16 hours. The suspensions were then removed from the bottles and assessed by the same live-dead staining.

[6] = test system: Caco2/TC7 colon tumour cell cultures; conditions: cited from earlier work
[7] = 200 μM DEAB, about 1(10^7) hepG2 cells, 16 hours

## CC=O [AA, acetaldehyde]
hepG2 cells [1]; 50 mL DMEM, 16 hours at 37° C.
  reduction of headspace AA concentration by cells: approximately 90%
hepG2 cells [1]; starting 59 ppbv
  headspace AA concentration after incubation with cells: 20 ppbv
hepG2 cells [1]; starting 396 ppbv
  headspace AA concentration after incubation with cells: 48 ppbv
hepG2 cells [1]; starting 990 ppbv
  headspace AA concentration after incubation with cells: 118 ppbv

## CCN(CC)c1ccc(C=O)cc1 [DEAB]
ALDH [2]; [7]
  peak AA concentration in the liquid phase: 4 µM
  peak headspace AA concentration: around 600 ppbv
ALDH [2]; 1.5(10^7) hepG2 cells, 16 hours at 37° C., DEAB in 0.1% v/v DMSO
  headspace AA concentration with increasing DEAB concentration: general increase in the AA concentration
hepG2 cells [3]; 0 to 25 μM DEAB, 1.5(10^7) hepG2 cells, 0.1% v/v DMSO
  decline in headspace DMS: 30%
hepG2 cells [3]; 200 μM DEAB, 1(10^4) to 5(10^6) hepG2 cells, 0.1% v/v DMSO
  DMS production: clearly reduced
hepG2 cells [3]; 200 μM DEAB, 5(10^6) up to 3(10^7) hepG2 cells, 0.1% v/v DMSO
  decline of slope of DMS concentration versus cell number: about 30%
ALDH [4]
  effect on ALDH / ability of hMSCs to metabolise AA: effective inhibitor of ALDH
hMSCs
  effect on DMS production from DMSO: effective at preventing DMS production from DMSO
hepG2 cells [5]
  viability by live-dead staining: little or no decline in the viability

## C[S+](C)[O-] [DMSO, dimethyl sulphoxide]
hepG2 cells [3]; 0.1% v/v DMSO in medium, overnight incubation, by Henry's Law
  liquid phase DMS concentration formed from DMSO: > 300 nM
[6]
  DMSO concentration causing no observable cytotoxicity: up to 10 % (v/v)
